What was measured:
Test in all cases: relative viability (nuclei count vs DMSO), 5 days (fraction); higher = more cells survive
[1] = system: NCI-H1299
Summary of the method: (§1)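 A single step with final 0.05% Triton X-100, 1% formaldehyde and 1 ug/ml Hoechst fixed the cells and stained nuclei 5 days after treatment. Lung cancer cell lines in 1536-well plates had been treated by pin tool the day after seeding with one drug alone or a fixed anchor-drug dose plus five library-drug doses (not always all listed) in √10 steps, and nuclei were counted on 4× images. Relative viability is the ratio of nuclei in treated wells to nuclei in vehicle wells, taken as the median of duplicate plates.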

[2] = system: NCI-H596
Summary of the method: as §1

[3] = system: NCI-H1993
Summary of the method: as §1

[4] = system: EBC-1
Summary of the method: as §1

[5] = system: LCLC-97TM1
Summary of the method: as §1

[6] = system: NCI-H1355
Summary of the method: as §1

[7] = system: IA-LM
Summary of the method: as §1

[8] = system: NCI-H322M
Summary of the method: as §1

[9] = system: Calu-6
Summary of the method: as §1

[10] = system: A549
Summary of the method: as §1

[11] = system: UMC-11
Summary of the method: as §1

[12] = system: NCI-H1703
Summary of the method: as §1

[13] = system: NCI-H23
Summary of the method: as §1

COc1cc2nccc(Oc3ccc(NC(=O)Nc4cc(C)on4)c(Cl)c3)c2cc1OC [Tivozanib] + CC1(C)CCC(c2ccc(Cl)cc2)=C(CN2CCN(c3ccc(C(=O)NS(=O)(=O)c4ccc(N[C@H](CCN5CCOCC5)CSc5ccccc5)c(S(=O)(=O)C(F)(F)F)c4)cc3)CC2)C1 [Navitoclax] (partner 0.5 µM) gave a relative viability ([1]; first compound 0.005 µM) of 1.03, a relative viability ([1]; first compound 0.01581 µM) of 1.07 and a relative viability ([1]; first compound 0.05 µM) of 1.05. For the same compound, the relative viability ([1]; first compound 0.1581 µM) was 1.05, the relative viability ([1]; first compound 0.5 µM) was 0.981 and the relative viability ([2]; first compound 0.005 µM) was 0.94. It also gave a relative viability ([2]; first compound 0.01581 µM) of 1.07, a relative viability ([2]; first compound 0.05 µM) of 0.936 and a relative viability ([2]; first compound 0.1581 µM) of 0.911. The relative viability ([2]; first compound 0.5 µM) was 0.922, the relative viability ([3]; first compound 0.005 µM) was 0.86 and the relative viability ([3]; first compound 0.01581 µM) was 0.857. For the same compound, the relative viability ([3]; first compound 0.05 µM) was 0.967, the relative viability ([3]; first compound 0.1581 µM) was 0.668 and the relative viability ([3]; first compound 0.5 µM) was 0.836. For the same compound, the relative viability ([4]; first compound 0.005 µM) was 0.359, the relative viability ([4]; first compound 0.01581 µM) was 0.437 and the relative viability ([4]; first compound 0.05 µM) was 0.528. It also gave a relative viability ([4]; first compound 0.1581 µM) of 0.436, a relative viability ([4]; first compound 0.5 µM) of 0.485 and a relative viability ([5]; first compound 0.005 µM) of 0.412. It also gave a relative viability ([5]; first compound 0.01581 µM) of 0.288, a relative viability ([5]; first compound 0.1581 µM) of 0.413 and a relative viability ([5]; first compound 0.5 µM) of 0.425. For the same compound, the relative viability ([6]; first compound 0.005 µM) was 0.844, the relative viability ([6]; first compound 0.01581 µM) was 0.989 and the relative viability ([6]; first compound 0.05 µM) was 0.996. The relative viability ([6]; first compound 0.5 µM) was 1, the relative viability ([7]; first compound 0.005 µM) was 0.728 and the relative viability ([7]; first compound 0.01581 µM) was 0.899. The relative viability ([7]; first compound 0.05 µM) was 0.737, the relative viability ([7]; first compound 0.1581 µM) was 0.574 and the relative viability ([7]; first compound 0.5 µM) was 0.582. For the same compound, the relative viability ([8]; first compound 0.005 µM) was 1.23, the relative viability ([8]; first compound 0.01581 µM) was 1.09 and the relative viability ([8]; first compound 0.05 µM) was 1.28. For the same compound, the relative viability ([8]; first compound 0.1581 µM) was 1.22, the relative viability ([8]; first compound 0.5 µM) was 1.14 and the relative viability ([9]; first compound 0.005 µM) was 0.739. For the same compound, the relative viability ([9]; first compound 0.01581 µM) was 0.896, the relative viability ([9]; first compound 0.05 µM) was 0.798 and the relative viability ([9]; first compound 0.1581 µM) was 0.874. The relative viability ([9]; first compound 0.5 µM) was 0.74, the relative viability ([10]; first compound 0.005 µM) was 1.22 and the relative viability ([10]; first compound 0.01581 µM) was 1.32. For the same compound, the relative viability ([10]; first compound 0.05 µM) was 1.14, the relative viability ([10]; first compound 0.1581 µM) was 1.23 and the relative viability ([10]; first compound 0.5 µM) was 1.19. For the same compound, the relative viability ([11]; first compound 0.005 µM) was 0.314, the relative viability ([11]; first compound 0.01581 µM) was 0.322 and the relative viability ([11]; first compound 0.05 µM) was 0.306. It also gave a relative viability ([11]; first compound 0.5 µM) of 0.329, a relative viability ([12]; first compound 0.005 µM) of 0.369 and a relative viability ([12]; first compound 0.01581 µM) of 0.244. For the same compound, the relative viability ([12]; first compound 0.05 µM) was 0.219, the relative viability ([12]; first compound 0.1581 µM) was 0.251 and the relative viability ([12]; first compound 0.5 µM) was 0.249. For the same compound, the relative viability ([13]; first compound 0.005 µM) was 0.753, the relative viability ([13]; first compound 0.01581 µM) was 0.718 and the relative viability ([13]; first compound 0.05 µM) was 0.92. It also gave a relative viability ([13]; first compound 0.1581 µM) of 0.652 and a relative viability ([13]; first compound 0.5 µM) of 0.938.

Reference: the supplement of paper PMC10307832
